Test results reported in patent US20100249234A1, “METHODS OF REDUCING VIRULENCE IN BACTERIA” (UWM RESEARCH FOUNDATION, INC., priority 2007, published 2010).

Tests used:
Type in all cases: cell-based, Dickeya dadantii 3937 (Ech3937)
hrpN promoter = hrpN promoter activity, GFP reporter plasmid phrpN, flow cytometry (FACS)
pPROBE-AT vector = assay: GFP expression control base level, pPROBE-AT vector, flow cytometry (FACS); details: MM + 0.1 mM compound, 12 h (Table 4)
Procedure: (§1) FACS analysis of promoter activity of dspE, hrpA, hrpL, hrpN, and hrpS was carried out as described (Peng et al., 2006). Briefly, the wild-type Ech3937 and the mutant strains carrying the promoter reporter plasmid were grown on LB broth at 28° C. overnight and transferred to appropriate media. For FACS analysis, samples were collected by centrifugation, washed with 1× phosphate buffer saline (PBS) at 13,000 rpm for 1 min, and re-suspended in 1×PBS to ca 10^6 CFU/ml prior to being run in a FACS Calibur flow cytometer (BD Biosciences, CA). Three replicates were performed for each treatment.
(§2) Since OCA and TCA induced the expression of hrpN, the effect of these two phenolic compounds on the expression of hrpA, hrpL, and hrpS was investigated further. […] GFP intensity was determined on gated populations of bacterial cells by flow cytometry and analyzed with the Cell Quest software (BD Biosciences, San Jose, Calif.). The lines labeled “1” stand for the GFP expression control base level of the Ech3937 containing pPROBE-AT vector; lines labeled “2” stand for the promoter activity of hrpS, hrpL, hrpA and hrpN in Ech3937 in MM; lines labeled “3” stand for the promoter activity of Ech3937 in MM supplemented with 0.1 mM OCA; lines labeled “4” stand for the promoter activity of hrpL mutant WPP96 in MM; lines labeled “5” stand for the promoter activity of hrpL mutant WPP96 in MM supplemented with 0.1 mM OCA. Values are representative of at least two experiments. […] Compared with MM alone, the average GFP fluorescence intensity of bacterial cells of Ech3937 (phrpA) was doubled when 0.1 mM of OCA and TCA were added to the medium (Table 4; FIG. 3). […] The mrp, whose protein product has an ATPase conserved domain (2e-06), was used as a reference gene in this study.

hrpA promoter = hrpA promoter activity, GFP reporter plasmid phrpA, flow cytometry (FACS)
Procedure: as §1
To identify potential compounds that repress activation of T3SS, analogs and isomers of TCA and intermediates of salicylic acid and phenypropanoid biosynthesis pathways in plants were further screened for their effect on Ech3937 hrpA expression by flow cytometry (Table 9). A green fluorescent protein (GFP) reporter plasmid phrpA (pProbe-AT derivative with PCR fragment containing hrpA promoter region) was constructed, resulting in a transcriptional fusion of hrpA promoter with GFP gene. Bacterial cells containing phrpA plasmid were grown in MM supplemented with 0.1 mM of each compound. GFP intensity, which is a measurement of hrpA promoter activity, was measured by flow cytometry.

hrpL promoter = hrpL promoter activity, GFP reporter plasmid phrpL, flow cytometry (FACS); details: MM + 0.1 mM compound
Procedure: as §1, §2

hrpS promoter = hrpS promoter activity, GFP reporter plasmid phrpS, flow cytometry (FACS); details: MM + 0.1 mM compound
Procedure: as §1, §2

rsmB mRNA = assay: qRT-PCR relative mRNA level of rsmB; details: Ech3937 in supplemented MM vs MM alone (normalized to 1)
Procedure: Bacterial strains were grown in MM. Total RNA from the bacterial cells was isolated by using the TRI reagent method (Sigma, Mo.) and treated with Turbo DNA-free DNase kits (Ambion, TX) as described (Peng et al., 2006). An iScript cDNA Synthesis Kit (Bio-Rad, CA) was used to synthesize cDNA from 0.5 μg of treated total RNA. The Real Master Mix (Eppendorf, Westbury, N.Y.) was used for qRT-PCR reaction to quantify the cDNA level of target genes in different samples. The rplU was used as the endogenous control for data analysis. qRT-PCR data were analyzed using Relative Expression Software Tool as described (Pfaffl, M. W., Horgan, G. W., and Dempfle, L. (2002) Relative expression software tool (REST) for group-wise comparison and statistical analysis of relative expression results in real-time PCR. Nucleic Acids Res 30:e36.).

Ech3937 = assay: Growth of Ech3937 in MM supplemented with compound; details: 0.05, 0.1 and 0.2 mM in MM (FIGS. 2A, 2B)
Excerpt: Phenolic compounds constitute an important class of organic substances produced by plants. The phenolic compound SA is a signaling molecule that plays a role in host defenses. OCA and TCA are the biosynthetic precursors of SA and are also reported to induce the expression of defense-related genes in plants. OCA, TCA, and SA were examined to elucidate their effects on the expression of T3SS genes. The expression of the T3SS gene hrpN was examined in MM and MM supplemented with OCA, TCA, and SA, at concentrations of 0.05, 0.1, and 0.2 mM, respectively. FIGS. 2A and 2B show the promoter activities of hrpN in Dickeya dadantii 3937 (Ech3937) grown in MM and MM supplemented with 0.05, 0.1, and 0.2 mM OCA, TCA, and SA at 12 h (FIG. 2A) and 24 h (FIG. 2B) post-inoculation. GFP intensity was determined on gated populations of bacterial cells by flow cytometry and analyzed with the Cell Quest software (BD Biosciences, San Jose, Calif.). The growth of Ech3937 in MM supplemented with different concentrations of OCA, TCA and SA was recorded. Compared with MM alone, the average GFP fluorescence intensity of bacterial cells of Ech3937 (phrpN) was increased approximately 4-fold when 0.05 mM of OCA and TCA were added to the medium (FIGS. 2A, 2B).
The expression of the T3SS gene hrpA was further examined in MM and MM supplemented with PCA at concentrations of 0.001, 0.005, 0.01, 0.05 and 0.1 mM respectively. FIGS. 16A and 16B show the promoter activities of hrpA in Dickeya dadantii 3937 (Ech3937) grown in minimum medium (MM) and MM supplemented with different amount of p-coumaric acid (PCA) at 12 h (FIG. 16A) and 24 h (FIG. 16B) post-inoculation. GFP intensity was determined on gated populations of bacterial cells by flow cytometry and analyzed with the Cell Quest software (BD Biosciences, San Jose, Calif.). The growth of Ech3937 in MM supplemented with different concentrations of PCA was recorded. Compared with MM alone, the average GFP fluorescence intensity of bacterial cells of Ech3937 (phrpA) was reduced more than 4-fold when 0.05 and 0.1 mM of PCA were added to the medium (FIGS. 16A, 16B).

mrp promoter = assay: mrp (reference gene) promoter activity, GFP reporter pmrp, flow cytometry (FACS); details: MM + 0.1 mM compound
Procedure: as §1, §2

[1] = MM + 0.1 mM compound, 12 h (Table 4)
[2] = hrpL mutant WPP96, MM + 0.1 mM compound, 12 h (Table 4)
[3] = hrpL mutant WPP96, 12 h (Table 4)

## O=C(O)/C=C/c1ccccc1 [TCA, t-cinnamic acid]
hrpN promoter; 0.05 mM compound added to MM, 12 h and 24 h (FIGS. 2A, 2B)
  increase of average GFP fluorescence intensity of Ech3937 (phrpN) compared with MM alone: approximately 4 fold
hrpN promoter; 0.1 mM compound in MM, 12 h (FIG. 5)
  induction of hrpN expression in Ech3937 and in hrpX (WPP67), hrpY (WPP92), hrpS (WPP90) mutants: induced the expression of hrpN in Ech3937, but not in hrpX, hrpY, and hrpS mutants
hrpN promoter; MM + 0.2 μM compound, 12 h
  GFP Intensity of Ech3937 (phrpN): 65.1 ± 6.8
hrpN promoter; MM + 0.2 μM compound, 24 h
  GFP Intensity of Ech3937 (phrpN): 163 ± 25
hrpN promoter; MM + 0.5 μM compound, 12 h
  GFP Intensity of Ech3937 (phrpN): 73.4 ± 4.2
hrpN promoter; MM + 0.5 μM compound, 24 h
  GFP Intensity of Ech3937 (phrpN): 158 ± 20
hrpN promoter; MM + 5 μM compound, 12 h
  GFP Intensity of Ech3937 (phrpN): 134 ± 5.6
hrpN promoter; MM + 5 μM compound, 24 h
  GFP Intensity of Ech3937 (phrpN): 266 ± 14
hrpN promoter; MM + 10 μM compound, 12 h
  GFP Intensity of Ech3937 (phrpN): 147 ± 18
hrpN promoter; MM + 10 μM compound, 24 h
  GFP Intensity of Ech3937 (phrpN): 284 ± 12
hrpN promoter; [1]
  GFP intensity (Mean Fluorescence Intensity) of Ech3937 (phrpN): 103 ± 1
hrpN promoter; [2]
  GFP intensity (Mean Fluorescence Intensity) of WPP96 (phrpN): 3.3 ± 0
pPROBE-AT vector
  GFP intensity (Mean Fluorescence Intensity) of Ech3937 (pPROBE-AT): 1.9 ± 0
hrpA promoter; 0.1 mM compound, 12 h
  average GFP fluorescence intensity of Ech3937 (phrpA) compared with MM alone: doubled
hrpA promoter; MM + 0.1 mM compound, 6 h (Table 9)
  expression of hrpA, GFP intensity (Mean Fluorescence Intensity), Ech3937 carrying phrpA: 22.3 ± 2.1
hrpA promoter; [1]
  GFP intensity (Mean Fluorescence Intensity) of Ech3937 (phrpA): 78 ± 0
hrpA promoter; MM + 0.1 mM compound, 12 h (Table 9)
  expression of hrpA, GFP intensity (Mean Fluorescence Intensity), Ech3937 carrying phrpA: 133.9 ± 12.9
hrpA promoter; MM + 0.1 mM compound, 24 h (Table 9)
  expression of hrpA, GFP intensity (Mean Fluorescence Intensity), Ech3937 carrying phrpA: 203.7 ± 16.1
hrpA promoter; [2]
  GFP intensity (Mean Fluorescence Intensity) of WPP96 (phrpA): 6.2 ± 0.6
hrpL promoter; Ech3937, 12 h
  promoter activity of hrpL compared with MM alone: slightly higher promoter activity
hrpL promoter; 12 h (Table 4)
  GFP intensity (Mean Fluorescence Intensity) of Ech3937 (phrpL): 19 ± 1
hrpL promoter; [3]
  GFP intensity (Mean Fluorescence Intensity) of WPP96 (phrpL): 331 ± 27
hrpS promoter; 12 h
  GFP intensity of Ech3937 (phrpS) compared with MM alone: slightly lower GFP intensity
hrpS promoter; 12 h (Table 4)
  GFP intensity (Mean Fluorescence Intensity) of Ech3937 (phrpS): 54 ± 2
hrpS promoter; [3]
  GFP intensity (Mean Fluorescence Intensity) of WPP96 (phrpS): 360 ± 16
rsmB mRNA
  rsmB mRNA relative expression ratio: 1.58
Ech3937
  bacterial growth of Ech3937 in supplemented MM: No reduction of bacterial growth
Mrp promoter; 12 h
  mrp expression in Ech3937 (pmrp) compared with MM: slightly higher mrp expression
Mrp promoter; reference gene, 12 h (Table 4)
  GFP intensity (Mean Fluorescence Intensity) of Ech3937 (pmrp): 105 ± 0.3
